Measurements from US5026848A, “Novel generation of heteroaryloxyalkyl heterocycles with antipicornaviruses activities” (Synphar Laboratories Incorporated, priority 1988, dated 1991).
In brackets after ≈: the same amount, converted by molar mass. Like-named read-outs stand apart in the source and are kept apart here.

How the values were obtained:
Rhinovirus 31 = assay: Anti-rhinovirus activity, cytopathic effect inhibition / neutral red dye uptake, type 31; type: cell-based; settings: Enterovirus, WI-38; Table II; one of seven commonest serotypes; read-out: MIC 50 Rhinovirus Type 31
Rhinovirus 1A = assay: Anti-rhinovirus activity, cytopathic effect inhibition / neutral red dye uptake, type 1A; type: cell-based; settings: Enterovirus, WI-38
Polio 1 = assay: microbe, parasite or virus in culture; type: cell-based; settings: Enterovirus, read-out: MIC 50 Polio 1
Rhinovirus 4 = assay: Anti-rhinovirus activity, cytopathic effect inhibition / neutral red dye uptake, type 4; type: cell-based; settings: Enterovirus, WI-38; Table II; one of seven commonest serotypes; read-out: MIC 50 Rhinovirus Type 4
Rhinovirus 17 = assay: Anti-rhinovirus activity, cytopathic effect inhibition / neutral red dye uptake, type 17; type: cell-based; settings: Enterovirus, WI-38; Table II; read-out: MIC 50 Rhinovirus Type 17
Rhinovirus 44 = assay: Anti-rhinovirus activity, cytopathic effect inhibition / neutral red dye uptake, type 44; type: cell-based; settings: Enterovirus, WI-38; Table II; read-out: MIC 50 Rhinovirus Type 44
[1] = test system: 20 serotypes of rhinovirus; assay: Anti-rhinovirus activity against a panel of 20 serotypes; settings: Table II; numerator; denominator 20, but 10 for compound 8 and 6 for compound 30
Echo-7 = assay: Activity against other picornaviruses, Echo-7; type: cell-based; settings: Enterovirus, read-out: MIC 50 Echo 7
Rhinovirus 23 = assay: Anti-rhinovirus activity, cytopathic effect inhibition / neutral red dye uptake, type 23; type: cell-based; settings: Enterovirus, WI-38; Table II; read-out: MIC 50 Rhinovirus Type 23
Rhinovirus 88 = assay: Anti-rhinovirus activity, cytopathic effect inhibition / neutral red dye uptake, type 88; type: cell-based; settings: Enterovirus, WI-38; Table II; read-out: MIC 50 Rhinovirus Type 88
Rhinovirus 15 = assay: Anti-rhinovirus activity, cytopathic effect inhibition / neutral red dye uptake, type 15; type: cell-based; settings: Enterovirus, WI-38; Table II; one of seven commonest serotypes; read-out: MIC 50 Rhinovirus Type 15
Coxsacki-B4 = assay: Activity against other picornaviruses, Coxsacki-B4; type: cell-based; settings: Enterovirus, read-out: MIC 50 Cox. B4
Enterovirus serotypes = type: cell-based; settings: for All Enterovirus Serotypes (number of serotypes active / tested): Table III, numerator, denominator 7, but 5 for compound 8
Rhinovirus 1B = assay: Anti-rhinovirus activity, cytopathic effect inhibition / neutral red dye uptake, type 1B; type: cell-based; settings: Enterovirus, WI-38; Table II; one of seven commonest serotypes; read-out: MIC 50 Rhinovirus Type 1B
Coxsacki-A9 = assay: Activity against other picornaviruses, Coxsacki-A9; type: cell-based; settings: Enterovirus, read-out: MIC 50 Cox. A9
Coxsacki-A21 = assay: Activity against other picornaviruses, Coxsacki-A21; type: cell-based; settings: Enterovirus, read-out: MIC 50 Cox. A21
Rhinovirus 32 = assay: Anti-rhinovirus activity, cytopathic effect inhibition / neutral red dye uptake, type 32; type: cell-based; settings: Enterovirus, WI-38; Table II; read-out: MIC 50 Rhinovirus Type 32
Rhinovirus 39 = assay: Anti-rhinovirus activity, cytopathic effect inhibition / neutral red dye uptake, type 39; type: cell-based; settings: Enterovirus, WI-38; Table I; WI38 cells, 33° C., 3-4 days; read-out: MIC50 Rhinovirus 39
Rhinovirus 86 = assay: Anti-rhinovirus activity, cytopathic effect inhibition / neutral red dye uptake, type 86; type: cell-based; settings: Enterovirus, WI-38; Table II; read-out: MIC 50 Rhinovirus Type 86
Echo-11 = assay: Activity against other picornaviruses, Echo-11; type: cell-based; settings: Enterovirus, read-out: MIC 50 Echo 11
Rhinovirus 36 = assay: Anti-rhinovirus activity, cytopathic effect inhibition / neutral red dye uptake, type 36; type: cell-based; settings: Enterovirus, WI-38; Table II; read-out: MIC 50 Rhinovirus Type 36
Rhinovirus 56 = assay: Anti-rhinovirus activity, cytopathic effect inhibition / neutral red dye uptake, type 56; type: cell-based; settings: Enterovirus, WI-38; Table II; read-out: MIC 50 Rhinovirus Type 56
Rhinovirus 29 = assay: Anti-rhinovirus activity, cytopathic effect inhibition / neutral red dye uptake, type 29; type: cell-based; settings: Enterovirus, WI-38; Table II; one of seven commonest serotypes; read-out: MIC 50 Rhinovirus Type 29
Rhinovirus 63 = assay: Anti-rhinovirus activity, cytopathic effect inhibition / neutral red dye uptake, type 63; type: cell-based; settings: Enterovirus, WI-38; Table II; read-out: MIC 50 Rhinovirus Type 63
Rhinovirus 53 = assay: Anti-rhinovirus activity, cytopathic effect inhibition / neutral red dye uptake, type 53; type: cell-based; settings: Enterovirus, WI-38; Table II; read-out: MIC 50 Rhinovirus Type 53
WI38 cells = assay: Toxicity to WI38 cells (change in morphology in / growth inhibition of 25% of the cells); type: cell-based
Rhinovirus 49 = assay: Anti-rhinovirus activity, cytopathic effect inhibition / neutral red dye uptake, type 49; type: cell-based; settings: Enterovirus, WI-38; Table II; read-out: MIC 50 Rhinovirus Type 49
Rhinovirus 30 = assay: Anti-rhinovirus activity, cytopathic effect inhibition / neutral red dye uptake, type 30; type: cell-based; settings: Enterovirus, WI-38; Table II; read-out: MIC 50 Rhinovirus Type 30
Rhinovirus 2 = assay: Anti-rhinovirus activity, cytopathic effect inhibition / neutral red dye uptake, type 2; type: cell-based; settings: Enterovirus, WI-38; Table II; one of seven commonest serotypes; read-out: MIC 50 Rhinovirus Type 2
Coxsacki-B1 = assay: Activity against other picornaviruses, Coxsacki-B1; type: cell-based; settings: Enterovirus, read-out: MIC 50 Cox. B1
HRV-1A and HRV-39 = assay: Anti-rhinovirus activity against HRV-1A and HRV-39; settings: in words
[2] = Table I, WI38 cells, 33° C., 3-4 days, NA = Not active, read-out: MIC50 Rhinovirus 1A
[3] = Table I, concentration with change in morphology in 25% of WI38 cells

Row | SMILES | EC50 (Rhinovirus 31) | EC50 (Rhinovirus 1A; [2]) | EC50 (Polio 1) | IC50 (Rhinovirus 4) | IC50 (Rhinovirus 17) | EC50 (Rhinovirus 44) | All Rhinovirus Serotypes (number of serotypes active / tested) [1] | IC50 (Echo-7) | IC50 (Rhinovirus 23) | EC50 (Rhinovirus 88) | IC50 (Rhinovirus 15) | IC50 (Coxsacki-B4) | All Enterovirus Serotypes (number of serotypes active / tested) (Enterovirus serotypes) | IC50 (Rhinovirus 1B) | EC50 (Coxsacki-A9) | IC50 (Coxsacki-A21) | EC50 (Rhinovirus 39) | Toxicity (WI38 cells; [3]) | Toxicity (WI38 cells; Table II) | inhibitory activity against HRV-1A and HRV-39 in vitro (HRV-1A and HRV-39) | other results
1 | Cc1csc(CCCCCCOc2ccc3oc4ccccc4c3c2)n1 [Compound 27] | 10 µg/mL (≈ 27.4 µM) | 10 µg/mL (≈ 27.4 µM) | > 25 µg/mL | 25 µg/mL (≈ 68.4 µM) | 10 µg/mL (≈ 27.4 µM) | 10 µg/mL (≈ 27.4 µM) | 17 | > 25 µg/mL | 5 µg/mL (≈ 13.7 µM) | > 25 µg/mL | 10 µg/mL (≈ 27.4 µM) | > 25 µg/mL | 3 | 5 µg/mL (≈ 13.7 µM) | 5 µg/mL (≈ 13.7 µM) | 10 µg/mL (≈ 27.4 µM) | 10 µg/mL (≈ 27.4 µM) | 50 µg/mL | 50 µg/mL |  | inhibitory activity against the members of the Entero virus family (Enterovirus serotypes): remarkable inhibitory activity; EC50 (Rhinovirus 32): 10 µg/mL (≈ 27.4 µM); EC50 (Rhinovirus 86): 1 µg/mL (≈ 2.74 µM); IC50 (Echo-11): > 25 µg/mL; EC50 (Rhinovirus 36): > 25 µg/mL; EC50 (Rhinovirus 56): 5 µg/mL (≈ 13.7 µM); IC50 (Rhinovirus 29): 25 µg/mL (≈ 68.4 µM); EC50 (Rhinovirus 63): 25 µg/mL (≈ 68.4 µM); EC50 (Rhinovirus 53): 10 µg/mL (≈ 27.4 µM); Toxicity (WI38 cells; Table III): 50 µg/mL; EC50 (Rhinovirus 49): > 25 µg/mL; IC50 (Rhinovirus 30): 10 µg/mL (≈ 27.4 µM); IC50 (Rhinovirus 2): > 25 µg/mL; IC50 (Coxsacki-B1): 10 µg/mL (≈ 27.4 µM)
2 | c1ccc(-n2nccc2CCCCCCOc2ccc3oc4ccccc4c3c2)cc1 [Compound 30] | > 25 µg/mL | 10 µg/mL (≈ 24.4 µM) |  | 10 µg/mL (≈ 24.4 µM) |  |  | 5 |  |  |  | 5 µg/mL (≈ 12.2 µM) |  |  | 10 µg/mL (≈ 24.4 µM) |  |  | 5 µg/mL (≈ 12.2 µM) | > 50 µg/mL | > 50 µg/mL | remarkably inhibitory activity | 
3 | Cc1cc(OCCCCCCc2ccnn2-c2ccccc2)c2ccccc2n1 [Compound 31, 5-[6-(2-methylquinolin-4-yl)oxyhexyl]-1-phenylpyrazole] |  | 10 µg/mL (≈ 25.9 µM) |  |  |  |  |  |  |  |  |  |  |  |  |  |  | 10 µg/mL (≈ 25.9 µM) | 25 µg/mL |  | remarkably inhibitory activity | 
4 | c1ccc(-n2nccc2CCCCCCOc2ccc3ccccc3c2)cc1 [Compound 32, 5-[6-(2-naphthyl)-oxyhexyl]-1-phenylpyrazole] |  | 25 µg/mL (≈ 67.5 µM) |  |  |  |  |  |  |  |  |  |  |  |  |  |  | 25 µg/mL (≈ 67.5 µM) | 50 µg/mL |  | remarkably inhibitory activity | 
5 | Cc1cc(CCCCCCCOc2ccc(C3=NCCO3)cc2)on1 [Disoxaril, reference compound] | 25 µg/mL (≈ 73 µM) | 10 µg/mL (≈ 29.2 µM) | 5 µg/mL (≈ 14.6 µM) | 0.5 µg/mL (≈ 1.46 µM) | < 0.5 µg/mL | < 0.5 µg/mL | 17 | 5 µg/mL (≈ 14.6 µM) | 10 µg/mL (≈ 29.2 µM) | < 0.5 µg/mL | 5 µg/mL (≈ 14.6 µM) | 10 µg/mL (≈ 29.2 µM) | 7 | 25 µg/mL (≈ 73 µM) | 5 µg/mL (≈ 14.6 µM) | 5 µg/mL (≈ 14.6 µM) | 5 µg/mL (≈ 14.6 µM) | 50 µg/mL | 50 µg/mL |  | EC50 (Rhinovirus 1A; Table II, one of seven commonest serotypes, read-out: MIC 50 Rhinovirus Type 1A): 25 µg/mL (≈ 73 µM); EC50 (Rhinovirus 32): 10 µg/mL (≈ 29.2 µM); EC50 (Rhinovirus 86): 0.5 µg/mL (≈ 1.46 µM); IC50 (Echo-11): 5 µg/mL (≈ 14.6 µM); EC50 (Rhinovirus 36): > 25 µg/mL; EC50 (Rhinovirus 56): 25 µg/mL (≈ 73 µM); IC50 (Rhinovirus 29): 10 µg/mL (≈ 29.2 µM); EC50 (Rhinovirus 63): 25 µg/mL (≈ 73 µM); EC50 (Rhinovirus 53): 25 µg/mL (≈ 73 µM); Toxicity (WI38 cells; Table III): 50 µg/mL; EC50 (Rhinovirus 49): > 25 µg/mL; IC50 (Rhinovirus 30): 0.5 µg/mL (≈ 1.46 µM); IC50 (Rhinovirus 2): > 25 µg/mL; IC50 (Coxsacki-B1): 10 µg/mL (≈ 29.2 µM)
